Assay results taken from patent publication US6965051B2, “Process for resolution of tamsulosin and compounds, compositions, and processes associated therewith” (Synthon IP Inc., priority 2001, dated 2005).

How the values were obtained:
[1] = Water solubility of amine (5) observed during alkaline extraction; type: physicochemical; conditions: free base, normal alkaline extraction gave too high a loss
Text: It has now been discovered that the so obtained free base of (5) is contaminated by side-products and should be purified for the next step. […] It has been discovered that an effective way to purify the amine is to form a sulfonic acid salt of the amine, especially methane sulfonate or tosylate. The salt, particularly the methane sulfonate salt of (5), may be isolated in solid, preferably crystalline state by conventional methods and may be used as an advantageous substrate in the next reaction step. The conversion of the free base of (5) into an acid addition salt and isolation of the salt in solid state enhances the purity of the compound (5), particularly it removes side products that resulted from hydrogenation such as 2-ethoxyphenyl. The 2-(o-ethoxyphenoxy)ethylamine methane sulfonate thus forms a specific aspect of this invention.

[2] = Solubility of solid state racemic tamsulosin free base precipitates (qualitative); type: physicochemical; conditions: relatively pure precipitate
Text: The typical starting tamsulosin substrate, namely racemic tamsulosin free base in solid state, is not formed in the prior art per se. The present invention is based in part on the discovery that the racemic free base can be formed and isolated in the solid state. Preferably the solid state form is a precipitate from a solution. More preferably, the solid state form is a crystalline form. The crystalline form includes all polymorphic modifications, unless otherwise noted and includes hydrates and solvates thereof. In particular, two polymorphic forms of solid state racemic tamsulosin free base, designated as Form 1 and Form 2, have now been discovered as part of the present invention and are described hereinafter. The solid state racemic free base can be isolated in high purity, including at least 80% purity, more preferably at least 90% purity, still more preferably at least 95% purity.

water solubility [1] | solubility in alcohols ([2]; alcohols such as methanol and ethanol) | solubility in chlorinated hydrocarbons ([2]; chlorinated hydrocarbons) | solubility in water ([2]; water) | SMILES
unexpectedly high | – | – | – | CCOc1ccccc1OCCN [amine (5), 2-(o-ethoxyphenoxy)ethylamine]
– | soluble | soluble | sparingly soluble | CCOc1ccccc1OCCNC(C)Cc1ccc(OC)c(S(N)(=O)=O)c1 (racemic) [racemic tamsulosin free base, (R,S)-5-[2-[[2-(2-ethoxyphenoxy)ethyl]amino]propyl]-2-methoxybenzene-sulfonamide]
